Laboratory results taken from article PMC9995496, “A screen for MeCP2-TBL1 interaction inhibitors using a luminescence-based assay” (Scientific Reports, 2023).
Ends that are not written are not given here. * marks the point of attachment. Biotin = O=C1N[C@H]2[C@H](CS[C@H]2CCCCC(=O)*)N1

Legend:
[1] = biological target: T1, MeCP2-TBL1 interaction (MeCP2-SmBiT / TBL1-LgBiT) (Mus musculus, UniProt Q9QXE7); assay: MeCP2-TBL1 NanoLuc luciferase complementation assay (cell-free, extracts of transfected HEK293 cells); assay type: binding, human
T1 construct: expressed in transfected cells; crude lysate used as a cell-free assay
T1 sequence (Q9QXE7 166-527): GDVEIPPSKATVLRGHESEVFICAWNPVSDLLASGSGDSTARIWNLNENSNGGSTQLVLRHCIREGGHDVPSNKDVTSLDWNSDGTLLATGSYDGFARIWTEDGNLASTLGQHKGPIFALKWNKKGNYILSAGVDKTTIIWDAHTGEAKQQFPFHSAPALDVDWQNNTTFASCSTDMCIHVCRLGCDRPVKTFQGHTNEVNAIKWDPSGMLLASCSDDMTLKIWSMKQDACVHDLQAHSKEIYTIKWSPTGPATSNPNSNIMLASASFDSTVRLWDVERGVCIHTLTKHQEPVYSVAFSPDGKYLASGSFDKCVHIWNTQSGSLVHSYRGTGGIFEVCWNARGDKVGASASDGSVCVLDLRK
Source text: To facilitate the discovery of inhibitors of the interaction between MeCP2 and TBL1/TBLR1, we set out to devise a simple and scalable biochemical assay for measuring the interaction between these two proteins. We initially explored the possibility of screening compound libraries using a previously established fluorescence polarization assay that depends on purified recombinant TBL1/TBLR1[26]. […] The resulting luminescence signal depends on the affinity between the two interacting proteins of interest (Fig. 1A). This method was originally developed to allow for the interrogation of protein–protein interactions in vivo. However, in order to facilitate large scale screening of chemical libraries, we adapted the assay for use as a cell-free system.
We fused the large N-terminal fragment of NanoLuc (LgBiT) to the C-terminus of the WD repeat domains of both TBL1 and TBLR1, and the small C-terminal fragment of NanoLuc (SmBiT) to the C-terminus of the C-terminal half of MeCP2 (Fig. 1B and C). This region of MeCP2 contains the NID (NCoR interaction domain)—the motif in MeCP2 that binds to TBL1/TBLR1.
The AgeI-NotI restriction fragment (encoding EGFP) was then replaced with a codon optimized SmBiT sequence to yield the MeCP2-SmBiT expression plasmid. The TBL1-LgBiT expression vector was derived from a TBL1-mCherry plasmid[25] by replacing the AgeI-NotI restriction fragment (encoding mCherry) with a codon optimized LgBiT sequence. SmBiT-PRKACA and LgBiT-PRKAR2A plasmids are commercially available (Promega, N203 and N204).
Cells were harvested after 24 h and cell pellets were stored at − 80 °C.
In the screens described here, the lysate obtained from a single 15 cm plate was used for 2.5 384-well assay plates. NanoLuc substrate (furimazine) (Promega, N1110) was diluted 1000-fold in passive lysis buffer (Promega, E1941) and added 1:1 to the lysate. Screening libraries were purchased from Asinex[40] and ApexBio (FDA-approved Drug Library, L1021). Compounds were dispensed using an Echo acoustic dispenser and tested at a final concentration of 20 µM in a total assay volume of 20 μl in 384-well plate format. DMSO was added to each well at a final concentration of 0.2% (v/v) and wells containing only DMSO were used as negative control. After 30 min incubation at room temperature, luminescence was measured on a Tecan M1000 multi-mode plate reader. Raw luminescence reads from each well on each plate were normalized to the median luminescence signal for that plate. In the ApexBio screen, the scaled and normalized PKA signal for each compound was subtracted from the MeCP2-TBL1 signal for the same compound. After plate normalization the robust SSMD (SSMD*) was calculated as described elsewhere. A threshold of SSMD* ≥ 3 was applied for discerning primary hits.
Assays were performed as described above except instead of a single concentration, a threefold serial dilution ranging from 60 to 0.03 μM was tested in triplicate for each of the compounds. Half-maximal inhibitory concentrations were calculated using global nonlinear regression by fitting the response data sets of all compounds simultaneously with a four-parameter logistic curve of log inhibitor concentration versus normalized luminescence using GraphPad Prism. During fitting, the maximum and minimum curve values were shared between the data sets.

[2] = tested on: PRKACA-PRKAR2A interaction (SmBiT-PRKACA / LgBiT-PRKAR2A), protein kinase A; set-up: NanoLuc complementation counter-screen in cell extract, PRKACA with PRKAR2A, loss of luminescence, detects NanoLuc interference; conditions: counter-screen for NanoLuc interference; 0.5 h, 20 µM; inhibitor
[3] = primary screen of the Asinex library, sheet "Sargen output Asinex library", one well per compound
[4] = primary screen of the Asinex library, sheet "Sargen output Asinex library", one well per compound, Batch Ref. 1
[5] = primary screen of Asinex library, single well per compound

Inhibition percent [1, 3]	Inhibition percent [1, 4]	also measured	Molecule
		effect of competitor peptide on MeCP2-TBL1 luminescence signal ([1]; peptide at 20 µM, n = 2): strongly inhibited	35 amino acid peptide: 35 amino acid MeCP2 wild-type NID peptide (residues 285-319), N-terminal biotin (Biotin-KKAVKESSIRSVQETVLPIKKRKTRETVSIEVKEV; UniProt P51608 285-319, looked up, fragment) [reference compound]
2.11%			O=C(Cn1cccc(C(=O)NCc2ccccc2)c1=O)NC1(c2ccccc2)CCCC1 [BDB_26402348]
-0.72%			CN(Cc1ccc2ncccc2c1)C(=O)Cn1cc(C(=O)NCc2ccccc2)ccc1=O [BDB_26410269]
	4.99%		O=C(Cn1cc(C(=O)NC2CCCCC2)ccc1=O)NCC1(c2ccccc2Cl)CC1 [BDB_26414870]
	-1.31%		C=CCC1(CC=C)CCN1C(=O)C1(Cc2ccc(-c3cccnc3)cc2)CCOCC1 [BDC_20667788]
	-2.13%		Cc1cccc(CC(=O)N2CCC(Cc3cccc(-c4cccnc4)c3)(C(N)=O)CC2)c1 [BDC_22461702]
	-3.60%		CCOc1ccc(CN2CCCC2c2ncc(C(=O)NCc3ccc(F)cc3)c(C)n2)cc1 (stereo not shown) [BDC_23170699]
	-1.94%		Cc1cccc(CC(=O)N2CCCCC2c2ncc(C(=O)NCc3ccccc3)c(C)n2)c1 (stereo not shown) [BDC_23190776]
-0.69%			Cc1ccc(CC(=O)N2CCCC(c3ncc(C(=O)NCc4ccccc4)c(C)n3)C2)cc1 (stereo not shown) [BDC_23198767]
	-4.37%		COc1ccccc1NC(=O)C1CN(C(=O)COc2ccccc2)Cc2cn(C)nc21 (stereo not shown) [BDC_23414979]
0.37%			COc1ccc(CNC(=O)c2cnc(C)nc2C2CCCCN2C(=O)c2cnccn2)cc1 (stereo not shown) [BDC_23571437]
-1.44%			CNC(=O)c1cnc(C)nc1C1CCCCN1CCS(=O)(=O)c1ccccc1 (stereo not shown) [BDC_23573041]
		Inhibition percent [1, 5]: -0.64	Cc1ncc(C(=O)N2CCOCC2)c(C2CCCCN2C(=O)c2nccc3ccccc23)n1 (stereo not shown) [BDC_23573125]
-0.19%			COc1ccc(C2CCCN2C(=O)Cn2cc(NC(=O)Cc3ccccc3F)cn2)cc1 (stereo not shown) [BDC_25693383]
		Inhibition percent [1, 5]: -4.87	COc1cccc(Cc2cccc(C3CCCN(Cc4ccncc4)C3)n2)c1 (stereo not shown) [BDC_27849507]
0.65%			COc1ccc(Cc2cccc(C3CCN(C(=O)Cc4ccc(F)cc4)CC3)n2)cc1 [BDC_27855593]
7.34%			CNc1ncccc1CN1CCCC(c2cccc(Cc3cccc(F)c3)n2)C1 (stereo not shown) [BDC_27866586]
	0.19%		CCN1C(=O)CC[C@@H](C(=O)NCCOc2ccccc2)[C@@H]1c1ccccc1F [BDC_32230426]
		Inhibition percent [1, 5]: -0.68	COCCN1C(=O)C[C@@H](C(=O)NCc2ccccc2COC)[C@@H]1c1ccccc1 [BDC_32231307]
	4.82%		O=C1CCCC[C@]2(CN(Cc3ccc(-c4ccccc4)cc3)C[C@H]2c2cc(F)cc(F)c2)N1 [BDD_20406167]
		Inhibition percent [1, 5]: -2.65	CCN1CCN(C(=O)CCC2NC(=O)NC2=O)C(Cc2ccc(-c3ccccc3)cc2)C1=O (stereo not shown) [BDD_21846702]
	1.68%		COc1cccc(C(=O)N2CCNC(=O)C2Cc2cccc(-c3cccc(F)c3)c2)c1OC (stereo not shown) [BDD_21847933]
0.61%			C=CCN1CCN(C(=O)Cc2cccnc2)C(Cc2ccc(-c3cccs3)cc2)C1=O (stereo not shown) [BDD_21855492]
	-1.27%		CCN1CCN(C(=O)Cc2ccccc2OC)C(Cc2cccc(-c3ccncc3)c2)C1=O (stereo not shown) [BDD_21872283]
	4.73%		O=C1CC(C(=O)N2CCNC(=O)C2Cc2cccc(-c3ccccc3)c2)c2ccccc2N1 (stereo not shown) [BDD_21879577]

Inhibition percent [1, 3]	Inhibition percent [1, 4]	also measured	Molecule
	-2.52%		CCN1CCN(C(=O)Cc2ccccc2OC)C(Cc2ccc(-c3cccnc3)cc2)C1=O (stereo not shown) [BDD_21886831]
-0.99%			CN(Cc1cccc(F)c1)Cc1nc(C2CC(=O)N(Cc3ccccc3)C2)cc(N(C)C)n1 (stereo not shown) [BDD_23510085]
	11.53%		O=C1CCC[C@]2(CN(Cc3cccc(-c4ccccc4F)c3)C[C@H]2c2ccccc2F)N1 [BDD_23570797]
	11.60%		O=C1CCC[C@]2(CN(Cc3cccc(-c4ccccc4F)c3)C[C@H]2c2ccc(F)c(F)c2)N1 [BDD_23570819]
	5.89%		COc1ccccc1-c1ccc(CN2C[C@@H](c3cccc(NC(C)=O)c3)[C@@]3(CCCCC(=O)N3)C2)cc1 [BDD_23570835]
	1.23%		COc1ccccc1-c1cccc(CN2C[C@@H](c3cc(F)cc(F)c3)[C@@]3(CCCCC(=O)N3)C2)c1 [BDD_23570836]
	-4.61%		Cc1ncc(C(=O)NCc2ccccc2)c(CC2CCN(C(=O)C3CCCCC3)CC2)n1 [BDD_23848427]
0.67%			Cc1cnc(C(=O)N2CCC(Cc3nc(C)ncc3C(=O)NCc3ccccc3)CC2)cn1 [BDD_23852576]
	-2.46%		COCCNC(=O)c1sc2ccccc2c1C1CN(C(=O)C(C)(C)OC)CCO1 (stereo not shown) [BDD_24015180]
		Inhibition percent [1, 5]: -0.05	CN1CCC(c2c(C(=O)NCCS(=O)(=O)NC3CCCCC3)sc3ccccc23)C1 (stereo not shown) [BDD_24044260]
	-2.41%		NC(=O)c1cc(C2CN(C(=O)c3ccnc(N4CCCCC4)c3)CCO2)nc2ccccc12 (stereo not shown) [BDD_24083754]
	-2.04%		O=C(Cn1cccn1)N1CCOC(c2cc(C(=O)N3CCOCC3)c3ccccc3n2)C1 (stereo not shown) [BDD_24083810]
5.71%			COc1ccc(F)cc1-c1cccc(CC2(C(=O)NCCN3CCCCC3C)CCOCC2)c1 (stereo not shown) [BDD_24116196]
-2.01%			Cc1cc(C)cc(-c2cccc(CC3(C(=O)NCCCN4CCC(C)CC4)CCOCC3)c2)c1 [BDD_24116218]
-1.18%			CCCC(=O)N1Cc2ccccc2OC2(CCC(N(C)CC3CCCCC3)CC2)C1 (stereo not shown) [BDD_24804536]
-1.53%			CC(=O)Nc1cccc([C@@H]2CN(Cc3ccc4c(c3)n(C)c(=O)n4C)C[C@]23CCCCC(=O)N3)c1 [BDD_25153608]
		Inh (PKA) [2]: 47.02%	O=c1cc(-c2ccc(O)c(-c3c(O)cc(O)c4c(=O)cc(-c5ccc(O)cc5)oc34)c2)oc2cc(O)cc(O)c12 [UM0142863:01, Amentoflavone]
		Inh (PKA) [2]: 0.502%	CCCC[N+]1(C)[C@@H]2C[C@@H](OC(=O)[C@H](CO)c3ccccc3)C[C@H]1[C@@H]1O[C@@H]12 (stereo partly shown) [UM0142864:01, Scopolamine butylbromide]
		Inh (PKA) [2]: -8.119%	Nc1ncnc2c1ncn2[C@@H]1O[C@H](CO)C[C@H]1O [UM0142866:01, Cordycepin]
		Inh (PKA) [2]: 8.004%	Nc1ccccc1NC(=O)CCCCCCC(=O)Nc1ccccc1 [UM0142867:01, BML-210(CAY10433)]
		Inh (PKA) [2]: 10.34%	Fc1ccc(C(c2ccc(F)cc2)N2CCN(C/C=C/c3ccccc3)CC2)cc1 [flunarizine]
		Inh (PKA) [2]: 14.12%	C=C1C(=O)[C@]23[C@H](O)[C@H]1CC[C@H]2[C@@]12CO[C@]3(O)[C@@H](O)[C@@H]1C(C)(C)CC[C@@H]2O [oridonin]
		Inh (PKA) [2]: 1.092%	QVPSRPNRAP [UM0141376:01, Dynamin inhibitory peptide]
		Inh (PKA) [2]: -2.196%	VPMLK [UM0141837:01, Bax inhibitor peptide V5]
